Reference: paper PMC3914206

Tests used:
Assay type in all cases: binding
Parameters in all cases: KINOMEscan: ABL1(F317L)-phosphorylated / KINOMEscan: ABL1(H396P)-nonphosphorylated / KINOMEscan: ABL1(H396P)-phosphorylated / KINOMEscan: ABL1(M351T)-phosphorylated / KINOMEscan: ABL1(T315I)-phosphorylated / KINOMEscan: ABL1-nonphosphorylated / KINOMEscan: ABL1-phosphorylated / KINOMEscan: ACVR2A / KINOMEscan: ACVR2B / KINOMEscan: ADCK3 / KINOMEscan: ADCK4 / KINOMEscan: AKT1 / KINOMEscan: AKT3 / KINOMEscan: ALK / KINOMEscan: ARK5 / KINOMEscan: AURKA / KINOMEscan: AURKC / KINOMEscan: BIKE / KINOMEscan: BMPR1A / KINOMEscan: BMPR1B / KINOMEscan: BMX / KINOMEscan: BRK / KINOMEscan: BRSK1 / KINOMEscan: BRSK2 / KINOMEscan: CAMK1 / KINOMEscan: CAMK1D / KINOMEscan: CAMK1G / KINOMEscan: CAMK2A / KINOMEscan: CAMK2B / KINOMEscan: AAK1 / KINOMEscan: CAMK2D / KINOMEscan: CAMK2G / KINOMEscan: ABL1(F317I)-nonphosphorylated / KINOMEscan: ABL1(F317I)-phosphorylated / KINOMEscan: ABL1(F317L)-nonphosphorylated: unit: % Ctrl
Settings in all cases: Compound Concentration 10 µM
panel of 442 kinases [1] = biological target: T1, panel of 442 kinases (Homo sapiens, UniProt P08581, Y1235D)
T1 construct: purchased KINOMEscan
From the text: (§1) We assessed the selectivity of members of this scaffold using the KINOMEscan methodology across a near comprehensive panel of 442 kinases [[18,27]].

panel of 442 kinases [2] = biological target: T2, panel of 442 kinases (Homo sapiens, UniProt Q96D53)
T2 construct: purchased KINOMEscan
T2 sequence (Q96D53 1-544): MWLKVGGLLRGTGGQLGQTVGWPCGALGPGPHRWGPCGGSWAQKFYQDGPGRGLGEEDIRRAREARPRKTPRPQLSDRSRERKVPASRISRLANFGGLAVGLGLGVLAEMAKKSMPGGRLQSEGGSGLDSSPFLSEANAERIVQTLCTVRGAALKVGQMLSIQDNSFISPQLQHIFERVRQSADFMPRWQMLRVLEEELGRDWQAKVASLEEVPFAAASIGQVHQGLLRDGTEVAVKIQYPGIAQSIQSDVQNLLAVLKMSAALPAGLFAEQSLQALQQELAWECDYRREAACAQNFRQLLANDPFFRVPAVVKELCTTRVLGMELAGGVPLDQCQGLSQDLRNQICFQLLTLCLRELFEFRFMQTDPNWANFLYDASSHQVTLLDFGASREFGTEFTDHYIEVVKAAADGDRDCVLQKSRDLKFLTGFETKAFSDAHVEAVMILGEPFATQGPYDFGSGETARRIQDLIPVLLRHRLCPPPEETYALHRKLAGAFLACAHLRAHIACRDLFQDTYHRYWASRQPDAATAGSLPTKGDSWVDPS
From the text: as §1

panel of 442 kinases [3] = biological target: T3, panel of 442 kinases (Plasmodium falciparum, UniProt P61075)
T3 construct: purchased KINOMEscan
From the text: as §1

T1 sequence (P08581 25-1390 Y1235D): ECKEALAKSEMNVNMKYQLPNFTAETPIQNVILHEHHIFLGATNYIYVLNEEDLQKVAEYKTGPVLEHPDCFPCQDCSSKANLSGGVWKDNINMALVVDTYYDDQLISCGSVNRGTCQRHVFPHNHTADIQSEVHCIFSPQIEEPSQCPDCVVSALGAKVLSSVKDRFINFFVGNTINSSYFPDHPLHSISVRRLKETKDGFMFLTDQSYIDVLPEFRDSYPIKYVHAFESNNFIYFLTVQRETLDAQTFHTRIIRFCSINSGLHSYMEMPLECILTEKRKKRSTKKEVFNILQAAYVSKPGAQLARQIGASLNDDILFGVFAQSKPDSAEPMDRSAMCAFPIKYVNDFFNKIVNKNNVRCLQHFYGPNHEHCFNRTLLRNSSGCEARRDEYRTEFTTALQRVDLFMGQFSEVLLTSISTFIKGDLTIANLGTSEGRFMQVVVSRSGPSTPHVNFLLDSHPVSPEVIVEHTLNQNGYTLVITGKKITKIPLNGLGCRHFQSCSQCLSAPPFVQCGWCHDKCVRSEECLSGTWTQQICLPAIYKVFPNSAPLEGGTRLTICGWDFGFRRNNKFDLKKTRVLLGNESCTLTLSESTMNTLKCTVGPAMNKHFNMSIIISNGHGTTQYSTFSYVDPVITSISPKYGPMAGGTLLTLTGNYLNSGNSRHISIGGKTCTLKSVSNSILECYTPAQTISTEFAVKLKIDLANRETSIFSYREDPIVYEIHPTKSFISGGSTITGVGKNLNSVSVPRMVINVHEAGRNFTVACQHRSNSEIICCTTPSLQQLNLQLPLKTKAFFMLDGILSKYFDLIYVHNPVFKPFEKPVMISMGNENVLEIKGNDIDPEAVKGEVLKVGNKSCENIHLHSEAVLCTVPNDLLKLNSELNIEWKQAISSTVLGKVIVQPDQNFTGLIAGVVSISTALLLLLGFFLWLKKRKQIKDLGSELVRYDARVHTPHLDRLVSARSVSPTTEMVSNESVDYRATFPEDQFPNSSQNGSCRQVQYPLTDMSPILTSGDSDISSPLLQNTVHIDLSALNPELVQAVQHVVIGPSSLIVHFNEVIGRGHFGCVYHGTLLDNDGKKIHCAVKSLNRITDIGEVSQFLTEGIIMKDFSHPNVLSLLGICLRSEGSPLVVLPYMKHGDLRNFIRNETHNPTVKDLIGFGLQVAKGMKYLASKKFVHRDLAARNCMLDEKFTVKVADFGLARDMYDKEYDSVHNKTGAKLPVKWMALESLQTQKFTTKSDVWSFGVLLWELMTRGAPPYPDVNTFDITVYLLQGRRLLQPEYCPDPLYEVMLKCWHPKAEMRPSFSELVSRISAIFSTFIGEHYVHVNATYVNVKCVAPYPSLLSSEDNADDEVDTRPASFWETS
T3 sequence (P61075 whole entry): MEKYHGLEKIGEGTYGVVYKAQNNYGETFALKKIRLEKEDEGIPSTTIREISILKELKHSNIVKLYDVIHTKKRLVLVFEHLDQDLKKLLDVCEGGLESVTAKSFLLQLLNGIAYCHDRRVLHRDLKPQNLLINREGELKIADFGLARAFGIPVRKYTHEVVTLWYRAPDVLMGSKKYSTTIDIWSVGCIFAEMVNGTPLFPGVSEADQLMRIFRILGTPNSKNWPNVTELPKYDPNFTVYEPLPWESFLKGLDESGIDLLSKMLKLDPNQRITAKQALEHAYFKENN

SMILES	KINOMEscan: MET(Y1235D) (panel of 442 kinases [1])	KINOMEscan: ADCK4 (panel of 442 kinases [2])	KINOMEscan: PFPK5(P.falciparum) (panel of 442 kinases [3])
COc1cc(C(=O)N2CCC(N3CCN(C)CC3)CC2)ccc1Nc1ncc2c(n1)N(C)c1ccccc1C(=O)N2C [15 (LRRK2-IN-1)]	100	94	100
COc1cc(C(=O)N2CCC(N3CCN(C)CC3)CC2)ccc1Nc1ncc2c(n1)N1CCc3cccc(c31)C(=O)N2C [Compound 24]	74	81	92
COc1cc(C(=O)N2CCC(N3CCN(C)CC3)CC2)ccc1Nc1ncc2c(n1)N(C1CCCC1)c1ccccc1C(=O)N2C [Compound 25, 11-cyclopentyl-2-((2-methoxy-4-(4-(4-methylpiperazin-1-yl)piperidine-1-carbonyl)phenyl)amino)-5-methyl-5H-benzo[e]pyrimido[5,4-b][1,4]diazepin-6(11H)-one]	100	92	85
CCOc1cc(C(=O)N2CCC(N3CCN(C)CC3)CC2)ccc1Nc1ncc2c(n1)N(C1CCCC1)c1ccccc1C(=O)N2C [Compound 26]	100	100	100
